Measurements taken from US7074789B2, “Kinase inhibitors” (Amgen Inc., priority 1999, dated 2006).

Key:
Assay type in all cases: biochemical
Lck = molecular target: T1, Lck (Homo sapiens, UniProt P06239); assay: Kinase inhibition assay (33P transfer), Lck; conditions: Table 3; read-out: Lck-1
T1 construct: Kinases are expressed as either kinase domains or full length constructs; made in house
Method in brief: (§1)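 Steps: express kinase as GST or polyHistidine fusion in E. coli or High Five cells; optionally co-express or mix with regulatory polypeptides; incubate with 33P-ATP and plate-attached poly(Glu,Tyr) 4:1 or poly(Arg,Ser) 3:1; wash with 0.5% phosphoric acid; count by liquid scintillation.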

Lyn = molecular target: T2, Lyn (Homo sapiens, UniProt P07948); assay: Kinase inhibition assay (33P transfer), Lyn; conditions: Table 6, Lyn-1 kinase inhibition class
T2 construct: Kinases are expressed as either kinase domains or full length constructs; made in house
Method in brief: (§2)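 Kinase domains or full-length enzymes, GST- or polyHis-tagged, were expressed in E. coli or baculovirus High Five cells and affinity-purified. Transfer of 33PO4 from ATP onto plate-bound poly(Glu,Tyr) 4:1 or poly(Arg,Ser) 3:1 was counted by liquid scintillation after a 0.5% phosphoric acid wash. IC50 = concentration halving incorporation.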

Src = molecular target: T3, Src (Homo sapiens, UniProt P12931); assay: Kinase inhibition assay (33P transfer), Src; conditions: Table 6, Src-1 kinase inhibition class
T3 construct: Kinases are expressed as either kinase domains or full length constructs; made in house
Method in brief: as §2

Fyn = molecular target: T4, Fyn (Homo sapiens, UniProt P06241); assay: Kinase inhibition assay (33P transfer), Fyn; conditions: read-out: Fyn-1
T4 construct: Kinases are expressed as either kinase domains or full length constructs; made in house
T4 sequence (P06241 whole entry, species assumed, the tested form may be a part): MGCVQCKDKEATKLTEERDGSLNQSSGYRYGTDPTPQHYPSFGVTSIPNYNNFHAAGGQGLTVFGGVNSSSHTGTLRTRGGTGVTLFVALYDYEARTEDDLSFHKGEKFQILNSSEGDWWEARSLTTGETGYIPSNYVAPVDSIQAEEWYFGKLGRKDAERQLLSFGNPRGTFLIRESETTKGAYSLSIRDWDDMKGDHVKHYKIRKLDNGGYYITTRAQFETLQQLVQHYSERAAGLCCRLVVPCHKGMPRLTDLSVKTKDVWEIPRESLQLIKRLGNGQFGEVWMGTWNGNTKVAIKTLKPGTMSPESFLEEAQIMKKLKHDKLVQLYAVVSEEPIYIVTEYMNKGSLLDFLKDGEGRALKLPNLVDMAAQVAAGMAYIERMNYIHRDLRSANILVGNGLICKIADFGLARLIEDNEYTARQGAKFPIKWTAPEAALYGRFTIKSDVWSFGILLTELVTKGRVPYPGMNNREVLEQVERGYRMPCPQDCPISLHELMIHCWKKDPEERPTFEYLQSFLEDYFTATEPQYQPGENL
Method in brief: as §2

Zap-70 = molecular target: T5, Zap-70 (Homo sapiens, UniProt P43403); assay: Kinase inhibition assay (33P transfer), Zap-70; conditions: Table 3; read-out: Zap-1
T5 construct: Kinases are expressed as either kinase domains or full length constructs; made in house
T5 sequence (P43403 1-619): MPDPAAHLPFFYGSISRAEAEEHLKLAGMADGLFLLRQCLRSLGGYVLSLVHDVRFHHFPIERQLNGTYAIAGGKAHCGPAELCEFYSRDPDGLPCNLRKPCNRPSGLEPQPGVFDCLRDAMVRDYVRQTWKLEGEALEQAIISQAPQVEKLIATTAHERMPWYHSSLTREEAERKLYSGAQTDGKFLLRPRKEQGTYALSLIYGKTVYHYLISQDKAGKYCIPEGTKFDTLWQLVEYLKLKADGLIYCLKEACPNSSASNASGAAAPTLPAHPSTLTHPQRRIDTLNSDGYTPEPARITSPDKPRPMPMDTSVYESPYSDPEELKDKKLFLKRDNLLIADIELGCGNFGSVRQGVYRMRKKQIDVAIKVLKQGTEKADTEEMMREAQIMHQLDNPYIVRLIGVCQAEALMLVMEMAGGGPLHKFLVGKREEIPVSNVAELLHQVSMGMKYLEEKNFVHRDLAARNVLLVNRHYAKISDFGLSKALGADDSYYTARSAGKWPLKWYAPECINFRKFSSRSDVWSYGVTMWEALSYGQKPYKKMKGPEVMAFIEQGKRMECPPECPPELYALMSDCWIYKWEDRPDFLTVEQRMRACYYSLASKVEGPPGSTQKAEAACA
Method in brief: as §1

Itk = molecular target: T6, Itk (Homo sapiens, UniProt Q08881); assay: Kinase inhibition assay (33P transfer), Itk; conditions: Table 3; read-out: Itk-1
T6 construct: Kinases are expressed as either kinase domains or full length constructs; made in house
T6 sequence (Q08881 1-620): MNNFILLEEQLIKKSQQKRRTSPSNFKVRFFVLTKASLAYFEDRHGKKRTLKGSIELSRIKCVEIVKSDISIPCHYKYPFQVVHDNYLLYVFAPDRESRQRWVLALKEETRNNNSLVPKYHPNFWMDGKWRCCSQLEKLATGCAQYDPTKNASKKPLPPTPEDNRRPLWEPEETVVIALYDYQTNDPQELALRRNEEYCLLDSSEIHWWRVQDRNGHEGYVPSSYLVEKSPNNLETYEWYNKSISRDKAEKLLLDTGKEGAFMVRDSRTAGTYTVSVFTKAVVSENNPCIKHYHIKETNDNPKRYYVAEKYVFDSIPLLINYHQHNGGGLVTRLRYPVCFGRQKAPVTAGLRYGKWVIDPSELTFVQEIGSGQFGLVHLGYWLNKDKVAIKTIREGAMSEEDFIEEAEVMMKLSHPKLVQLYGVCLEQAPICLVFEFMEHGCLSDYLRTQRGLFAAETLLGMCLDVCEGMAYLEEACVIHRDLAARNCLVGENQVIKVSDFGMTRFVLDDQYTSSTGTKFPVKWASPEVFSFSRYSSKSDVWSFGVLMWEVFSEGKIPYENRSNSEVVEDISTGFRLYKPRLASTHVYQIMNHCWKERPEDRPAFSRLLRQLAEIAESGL
Method in brief: as §2

Kdr = molecular target: T7, Kdr (Homo sapiens, UniProt P35968); assay: Kinase inhibition assay (33P transfer), Kdr; conditions: Table 3; read-out: KDR-1
T7 construct: Kinases are expressed as either kinase domains or full length constructs; made in house
T7 sequence (P35968 20-1356, species assumed): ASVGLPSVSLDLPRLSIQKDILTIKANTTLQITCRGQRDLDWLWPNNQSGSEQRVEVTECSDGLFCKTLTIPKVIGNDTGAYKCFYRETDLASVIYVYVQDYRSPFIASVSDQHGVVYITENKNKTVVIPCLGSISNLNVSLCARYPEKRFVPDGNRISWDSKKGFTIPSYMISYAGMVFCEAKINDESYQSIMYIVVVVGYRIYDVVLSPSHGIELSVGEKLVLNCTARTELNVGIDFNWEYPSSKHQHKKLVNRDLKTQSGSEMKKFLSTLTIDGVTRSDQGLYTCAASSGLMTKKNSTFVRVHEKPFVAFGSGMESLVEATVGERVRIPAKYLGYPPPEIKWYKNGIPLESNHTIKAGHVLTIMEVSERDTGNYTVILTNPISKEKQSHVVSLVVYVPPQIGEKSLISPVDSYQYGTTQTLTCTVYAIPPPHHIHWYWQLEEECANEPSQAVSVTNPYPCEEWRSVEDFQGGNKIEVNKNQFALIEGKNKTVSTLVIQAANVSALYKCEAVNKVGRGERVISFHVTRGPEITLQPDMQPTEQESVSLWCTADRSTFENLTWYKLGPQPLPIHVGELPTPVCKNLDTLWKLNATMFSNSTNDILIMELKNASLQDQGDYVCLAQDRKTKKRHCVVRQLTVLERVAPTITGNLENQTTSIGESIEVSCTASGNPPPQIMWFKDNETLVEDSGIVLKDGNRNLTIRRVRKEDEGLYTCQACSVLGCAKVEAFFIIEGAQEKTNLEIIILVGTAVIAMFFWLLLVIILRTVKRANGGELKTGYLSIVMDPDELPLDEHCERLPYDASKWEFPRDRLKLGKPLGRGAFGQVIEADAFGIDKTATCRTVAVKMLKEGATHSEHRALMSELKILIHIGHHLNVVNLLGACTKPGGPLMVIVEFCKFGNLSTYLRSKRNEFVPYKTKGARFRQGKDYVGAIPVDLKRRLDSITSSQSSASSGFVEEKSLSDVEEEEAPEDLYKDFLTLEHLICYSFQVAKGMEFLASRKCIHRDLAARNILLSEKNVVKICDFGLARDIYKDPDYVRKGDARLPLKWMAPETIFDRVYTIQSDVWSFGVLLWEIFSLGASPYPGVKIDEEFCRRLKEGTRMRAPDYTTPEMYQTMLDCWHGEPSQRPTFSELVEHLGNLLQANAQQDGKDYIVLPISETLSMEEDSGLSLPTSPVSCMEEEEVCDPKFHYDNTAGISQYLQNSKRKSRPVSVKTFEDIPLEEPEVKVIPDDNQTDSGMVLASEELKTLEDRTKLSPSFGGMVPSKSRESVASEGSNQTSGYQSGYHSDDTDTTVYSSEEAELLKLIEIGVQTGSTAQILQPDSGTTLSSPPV
Method in brief: as §1

c-Met = molecular target: T8, c-Met (Homo sapiens, UniProt P08581); assay: Kinase inhibition assay (33P transfer), c-Met; conditions: Table 2, kinase inhibition class; read-out: Met-1
T8 construct: Kinases are expressed as either kinase domains or full length constructs; made in house
T8 sequence (P08581 25-1390): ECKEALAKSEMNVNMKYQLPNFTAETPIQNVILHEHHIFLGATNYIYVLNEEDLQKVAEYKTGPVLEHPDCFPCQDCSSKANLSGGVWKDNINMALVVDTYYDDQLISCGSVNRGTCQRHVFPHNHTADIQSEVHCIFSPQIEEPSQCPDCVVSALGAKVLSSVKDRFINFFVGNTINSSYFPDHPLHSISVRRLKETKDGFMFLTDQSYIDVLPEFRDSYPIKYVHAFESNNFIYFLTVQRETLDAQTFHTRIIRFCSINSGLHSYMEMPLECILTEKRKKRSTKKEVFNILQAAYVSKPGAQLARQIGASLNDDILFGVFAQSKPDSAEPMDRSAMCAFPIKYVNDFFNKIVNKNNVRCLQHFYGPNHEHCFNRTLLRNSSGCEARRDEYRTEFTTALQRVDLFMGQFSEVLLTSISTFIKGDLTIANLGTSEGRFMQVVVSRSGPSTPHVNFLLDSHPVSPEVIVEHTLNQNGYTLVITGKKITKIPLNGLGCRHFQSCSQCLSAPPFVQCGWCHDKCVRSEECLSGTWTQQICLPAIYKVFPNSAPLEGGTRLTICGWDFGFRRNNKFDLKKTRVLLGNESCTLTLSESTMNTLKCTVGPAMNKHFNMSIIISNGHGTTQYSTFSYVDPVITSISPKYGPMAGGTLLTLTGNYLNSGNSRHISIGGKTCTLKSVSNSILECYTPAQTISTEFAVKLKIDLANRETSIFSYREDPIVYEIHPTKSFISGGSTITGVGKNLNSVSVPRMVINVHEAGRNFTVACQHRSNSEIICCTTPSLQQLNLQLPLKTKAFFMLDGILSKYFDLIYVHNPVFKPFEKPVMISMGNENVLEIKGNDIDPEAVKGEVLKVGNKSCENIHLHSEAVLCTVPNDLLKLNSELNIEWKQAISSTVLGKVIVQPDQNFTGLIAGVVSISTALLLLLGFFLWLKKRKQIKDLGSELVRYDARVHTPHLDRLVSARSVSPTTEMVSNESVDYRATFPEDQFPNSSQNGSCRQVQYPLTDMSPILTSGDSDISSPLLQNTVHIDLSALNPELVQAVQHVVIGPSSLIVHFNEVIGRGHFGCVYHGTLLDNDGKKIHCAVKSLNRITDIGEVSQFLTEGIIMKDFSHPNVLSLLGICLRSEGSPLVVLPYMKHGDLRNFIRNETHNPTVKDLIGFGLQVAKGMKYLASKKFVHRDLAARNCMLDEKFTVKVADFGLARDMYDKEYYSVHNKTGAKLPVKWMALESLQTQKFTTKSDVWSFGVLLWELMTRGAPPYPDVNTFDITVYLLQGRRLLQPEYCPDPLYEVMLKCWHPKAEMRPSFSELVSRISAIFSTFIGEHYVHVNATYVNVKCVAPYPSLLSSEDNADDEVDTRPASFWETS
Method in brief: as §2

IGFR-1 = molecular target: T9, IGFR-1 (Homo sapiens, UniProt P08069); assay: Kinase inhibition assay (33P transfer), IGFR-1; conditions: Table 2, kinase inhibition class
T9 construct: Kinases are expressed as either kinase domains or full length constructs; made in house

PDGFRB = molecular target: T10, PDGFRB (Homo sapiens, UniProt P09619); assay: Kinase inhibition assay (33P transfer), PDGFRB; conditions: read-out: PDGFRB-1
T10 construct: Kinases are expressed as either kinase domains or full length constructs; made in house
T10 sequence (P09619 33-1106, species assumed): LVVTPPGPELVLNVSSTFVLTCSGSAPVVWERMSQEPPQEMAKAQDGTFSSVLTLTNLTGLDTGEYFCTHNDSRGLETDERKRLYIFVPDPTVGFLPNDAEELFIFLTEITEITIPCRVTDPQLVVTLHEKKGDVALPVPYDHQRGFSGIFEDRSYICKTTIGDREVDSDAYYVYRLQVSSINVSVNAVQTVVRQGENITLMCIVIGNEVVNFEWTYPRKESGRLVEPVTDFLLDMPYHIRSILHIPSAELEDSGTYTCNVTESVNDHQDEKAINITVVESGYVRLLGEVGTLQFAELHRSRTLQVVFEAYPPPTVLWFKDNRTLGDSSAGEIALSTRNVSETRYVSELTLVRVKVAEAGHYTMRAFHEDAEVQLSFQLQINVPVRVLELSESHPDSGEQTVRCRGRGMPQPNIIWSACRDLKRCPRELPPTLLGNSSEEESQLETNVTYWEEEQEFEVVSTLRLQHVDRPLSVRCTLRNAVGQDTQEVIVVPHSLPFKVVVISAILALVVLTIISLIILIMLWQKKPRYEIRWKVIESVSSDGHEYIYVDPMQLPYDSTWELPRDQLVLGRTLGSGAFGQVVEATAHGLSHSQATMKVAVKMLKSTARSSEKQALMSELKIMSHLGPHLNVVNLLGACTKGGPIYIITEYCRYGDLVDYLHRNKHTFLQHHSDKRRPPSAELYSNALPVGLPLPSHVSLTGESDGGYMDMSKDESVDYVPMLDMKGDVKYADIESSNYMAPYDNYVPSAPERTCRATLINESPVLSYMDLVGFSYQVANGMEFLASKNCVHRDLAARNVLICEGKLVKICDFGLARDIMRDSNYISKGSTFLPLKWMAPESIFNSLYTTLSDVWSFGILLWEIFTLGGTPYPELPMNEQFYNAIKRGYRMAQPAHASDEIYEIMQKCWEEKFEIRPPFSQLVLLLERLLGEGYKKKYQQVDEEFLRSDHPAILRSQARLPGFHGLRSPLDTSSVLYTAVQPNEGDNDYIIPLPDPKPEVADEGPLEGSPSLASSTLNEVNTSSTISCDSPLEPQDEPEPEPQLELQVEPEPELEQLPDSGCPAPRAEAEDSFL

ErbB4 = molecular target: T11, ErbB4 (Homo sapiens, UniProt Q15303); assay: Kinase inhibition assay (33P transfer), ErbB4; conditions: read-out: ErbB4-1
T11 construct: Kinases are expressed as either kinase domains or full length constructs; made in house

FGFR1 = molecular target: T12, FGFR1 (Homo sapiens, UniProt P11362); assay: Kinase inhibition assay (33P transfer), FGFR1; conditions: read-out: FGFR1-1
T12 construct: Kinases are expressed as either kinase domains or full length constructs; made in house

T1 sequence (P06239 whole entry, species assumed, the tested form may be a part): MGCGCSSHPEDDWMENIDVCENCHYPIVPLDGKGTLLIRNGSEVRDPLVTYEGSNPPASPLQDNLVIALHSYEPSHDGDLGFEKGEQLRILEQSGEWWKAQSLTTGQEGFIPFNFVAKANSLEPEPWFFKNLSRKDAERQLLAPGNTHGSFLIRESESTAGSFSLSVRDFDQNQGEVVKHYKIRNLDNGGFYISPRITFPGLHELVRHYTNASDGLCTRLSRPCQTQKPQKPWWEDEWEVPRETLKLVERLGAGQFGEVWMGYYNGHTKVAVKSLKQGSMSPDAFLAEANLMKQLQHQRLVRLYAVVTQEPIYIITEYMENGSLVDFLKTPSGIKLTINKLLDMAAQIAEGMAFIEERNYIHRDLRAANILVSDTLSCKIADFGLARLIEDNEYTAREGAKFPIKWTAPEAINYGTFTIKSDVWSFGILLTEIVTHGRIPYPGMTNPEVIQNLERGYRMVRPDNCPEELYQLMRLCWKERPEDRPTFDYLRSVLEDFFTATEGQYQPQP

Compound | IC50 (Lck) | IC50 (Lyn) | IC50 (Src) | IC50 (Fyn) | IC50 (Zap-70) | IC50 (Itk) | IC50 (Kdr) | IC50 (c-Met) | IC50 (IGFR-1) | IC50 (PDGFRB) | IC50 (ErbB4) | IC50 (FGFR1)
COc1cc(Nc2ncnc(Nc3ccc(C)c(O)c3)n2)cc(OC)c1OC [Compound 83] | < 1.04 µM | < 1.04 µM | < 1.04 µM | < 1.04 µM | > 11.7 µM | 1.04 to 6.26 µM | < 1.04 µM | > 11.7 µM | 1.04 to 6.26 µM | < 1.04 µM | 1.04 to 6.26 µM | < 1.04 µM
COc1cc(Nc2ncnc(Nc3cccc(O)c3)n2)cc(OC)c1OC [Compound 78] | 1.08 to 6.5 µM | < 1.08 µM | < 1.08 µM | < 1.08 µM | > 12.2 µM | 1.08 to 6.5 µM | < 1.08 µM | > 12.2 µM | 1.08 to 6.5 µM | < 1.08 µM | 1.08 to 6.5 µM | < 1.08 µM
COc1cc(Nc2ncnc(Nc3ccc4[nH]ncc4c3)n2)cc(OC)c1OC [Compound 79] | < 1.02 µM | < 1.02 µM | < 1.02 µM | 1.02 to 6.1 µM | > 11.4 µM | < 1.02 µM | < 1.02 µM | 6.1 to 8.9 µM | < 1.02 µM | 1.02 to 6.1 µM | 1.02 to 6.1 µM | 6.1 to 8.9 µM
COc1cc(Nc2ncnc(Nc3ccc4cn[nH]c4c3)n2)cc(OC)c1OC [Compound 70] | 1.02 to 6.1 µM | 1.02 to 6.1 µM | < 1.02 µM | > 11.4 µM | > 11.4 µM | 8.9 to 11.4 µM | < 1.02 µM | > 11.4 µM | 1.02 to 6.1 µM | < 1.02 µM | 1.02 to 6.1 µM | 1.02 to 6.1 µM
COc1cc(Nc2ncnc(N(c3ccc(Cl)cc3)c3nc4ccccc4[nH]3)n2)cc(OC)c1OC [Compound 374] | < 0.794 µM | < 0.794 µM | < 0.794 µM | 0.794 to 4.76 µM | > 8.93 µM | > 8.93 µM | < 0.794 µM | 0.794 to 4.76 µM | > 8.93 µM | 0.794 to 4.76 µM | 0.794 to 4.76 µM | < 0.794 µM
COc1cc(Nc2ncnc(Nc3ccc4[nH]ccc4c3)n2)cc(OC)c1OC [Compound 928] | < 1.02 µM | < 1.02 µM | < 1.02 µM | > 11.5 µM | > 11.5 µM | 6.12 to 8.92 µM | < 1.02 µM | 6.12 to 8.92 µM | < 1.02 µM | < 1.02 µM | 1.02 to 6.12 µM | 1.02 to 6.12 µM
COc1cc(Nc2ncnc(Nc3ccc(Oc4ccccc4)cc3)n2)cc(OC)c1OC [Compound 29] | < 0.898 µM | < 0.898 µM | < 0.898 µM | < 0.898 µM | > 10.1 µM | > 10.1 µM | < 0.898 µM | 7.86 to 10.1 µM | 5.39 to 7.86 µM | 0.898 to 5.39 µM | 0.898 to 5.39 µM | < 0.898 µM
COc1cc(Nc2ncnc(Nc3cc(-c4ccc(Cl)cc4)n[nH]3)n2)cc(OC)c1OC [Compound 367] | 0.881 to 5.29 µM | 0.881 to 5.29 µM | 0.881 to 5.29 µM | 0.881 to 5.29 µM | > 9.91 µM | 0.881 to 5.29 µM | < 0.881 µM | < 0.881 µM | < 0.881 µM | > 9.91 µM | > 9.91 µM | 5.29 to 7.71 µM
COc1cc(Nc2ncnc(-n3c(Nc4ccc5[nH]ccc5c4)nc4ccccc43)n2)cc(OC)c1OC [Compound 376] | < 0.787 µM | < 0.787 µM | > 8.85 µM | 0.787 to 4.72 µM | > 8.85 µM | 0.787 to 4.72 µM | < 0.787 µM | 4.72 to 6.88 µM | 0.787 to 4.72 µM | < 0.787 µM | 6.88 to 8.85 µM | < 0.787 µM
